The source of these data is ChEMBL document CHEMBL1142388, “Carbonic anhydrase activators: activation of the human tumor-associated isozymes IX and XII with amino acids and amines” (Bioorg Med Chem, 2008).

Assay [1] has as its target Carbonic anhydrase 12 (Homo sapiens) (UniProt O43570). Kind of assay: Activation of human recombinant CA12 catalytic domain by stopped-flow CO2 hydration method.
Assay [2] addresses Carbonic anhydrase 9 (Homo sapiens) (UniProt Q16790). Nature of the assay: Activation of human recombinant CA9 catalytic domain by stopped-flow CO2 hydration method.

Carbonic anhydrase 12 (Homo sapiens), sequence (O43570 whole entry, the tested form may be a part): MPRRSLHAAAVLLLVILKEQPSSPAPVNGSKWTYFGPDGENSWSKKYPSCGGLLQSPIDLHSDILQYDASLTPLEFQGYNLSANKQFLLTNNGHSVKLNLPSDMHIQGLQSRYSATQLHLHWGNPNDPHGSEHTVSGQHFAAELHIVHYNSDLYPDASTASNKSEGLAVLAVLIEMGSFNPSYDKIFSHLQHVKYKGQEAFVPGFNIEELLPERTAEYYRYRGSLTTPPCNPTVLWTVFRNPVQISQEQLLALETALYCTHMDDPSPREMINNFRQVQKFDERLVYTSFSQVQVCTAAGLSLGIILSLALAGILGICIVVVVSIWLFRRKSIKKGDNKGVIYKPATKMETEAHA

For `NCCc1ccccn1`, the KA in assay [1] is 0.69 µM; in assay [2], 0.013 µM.
Regarding `N[C@H](Cc1c[nH]cn1)C(=O)O`, the KA is 24.7 µM in assay [1] and 12.5 µM in assay [2].
`N[C@H](Cc1c[nH]c2ccccc12)C(=O)O`: the values for the KA in assay [1] and in assay [2] were 28.1 µM and 43.6 µM, respectively.
For `N[C@H](Cc1ccc(O)c(O)c1)C(=O)O`, the KA was determined as 0.89 µM in assay [1] and 54.7 µM in assay [2].
For the molecule `NCCc1ccc(O)c(O)c1`, the KA amounted to 0.67 µM in assay [1] and 0.92 µM in assay [2].
Consider `NCCN1CCOCC1`, for which the KA in assay [1] was 0.24 µM; in assay [2], 0.43 µM.
Take `NCCc1c[nH]cn1`: the KA worked out at 27.9 µM in assay [1] and 35.1 µM in assay [2].
On to `NCCN1CCNCC1`, for which the KA in assay [1] turned out to be 48.3 µM; in assay [2] it was 0.009 µM.
For `NCc1ccccn1`, the values for the KA in assay [1] and in assay [2] were 41.5 µM and 1.07 µM, respectively.
Regarding `N[C@@H](Cc1c[nH]c2ccccc12)C(=O)O`, the KA in assay [1] amounted to 26 µM; in assay [2], 37.5 µM.
In the same order, the values of `Nc1ccc(C[C@H](N)C(=O)O)cc1` are 1.09 µM and 48.7 µM.
In the same order, the values of `N[C@@H](Cc1c[nH]cn1)C(=O)O` are 37.5 µM and 9.71 µM.
In the same order, the values of `CNCC(O)c1ccc(O)c(O)c1` (single isomer, unassigned) are 0.41 µM and 0.87 µM.
Turning to `N[C@@H](Cc1ccc(O)c(O)c1)C(=O)O`, the KA turned out to be 1.67 µM in assay [1] and 51.3 µM in assay [2].
Taken in the same sequence, the figures for `NCCc1c[nH]c2ccc(O)cc12` were 0.3 µM and 33.1 µM.
In the same order, the values of `N[C@@H](Cc1ccc(O)cc1)C(=O)O` are 25.8 µM and 25.3 µM.
